Test results as given in PubChem BioAssay (NCI).
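Exposure lasted 48 hours, with cells grown in 96-well plates and compounds tested at five concentrations. GI50 = concentration required for 50% inhibition of growth. TGI: total growth inhibition.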

How the values were obtained:
Test in all cases: DTP human tumour cell line panel, 48 h
CAKI-1 renal = tested on: CAKI-1 renal
RPMI-8226 leukemia = tested on: RPMI-8226 leukemia
DMS 273 small cell lung = tested on: DMS 273 small cell lung
DLD-1 colon = tested on: DLD-1 colon
M19-MEL melanoma = tested on: M19-MEL melanoma
SF-268 CNS = tested on: SF-268 CNS
CCRF-CEM leukemia = tested on: CCRF-CEM leukemia
K-562 leukemia = tested on: K-562 leukemia
HOP-18 NSCLC = tested on: HOP-18 NSCLC
HCT-15 colon = tested on: HCT-15 colon
COLO 205 colon = tested on: COLO 205 colon
DMS 114 small cell lung = tested on: DMS 114 small cell lung
SF-295 CNS = tested on: SF-295 CNS
SNB-75 CNS = tested on: SNB-75 CNS
SNB-78 CNS = tested on: SNB-78 CNS
XF 498 CNS = tested on: XF 498 CNS

SMILES	TGI (CAKI-1 renal)	TGI (RPMI-8226 leukemia)	TGI (DMS 273 small cell lung)	TGI (DLD-1 colon)	TGI (M19-MEL melanoma)	TGI (SF-268 CNS)	TGI (CCRF-CEM leukemia)	TGI (K-562 leukemia)	TGI (HOP-18 NSCLC)	TGI (HCT-15 colon)	TGI (COLO 205 colon)	TGI (DMS 114 small cell lung)	TGI (SF-295 CNS)	TGI (SNB-75 CNS)	TGI (SNB-78 CNS)	GI50 (CCRF-CEM leukemia)	TGI (XF 498 CNS)
COc1ccc(C[C@H](N)C(=O)N2C[C@@H](CO)C[C@@H](n3ccc(=O)[nH]c3=O)C2)cc1	> 100 µM	> 100 µM	> 100 µM	> 100 µM	> 100 µM	> 100 µM	> 100 µM	> 100 µM	> 100 µM	> 100 µM	> 100 µM	> 100 µM	–	–	–	–	–
COC1OC2=CCC3C(=O)NC(=O)C3C2[C@H](OCc2ccccc2)C1OCc1ccccc1 (stereo partly specified)	–	–	–	3.71 µM	–	–	–	–	6.37 µM	3.86 µM	–	–	32.7 µM	31.5 µM	4.12 µM	–	–
O=C(N/N=C/c1cc(Br)cc(Br)c1[O-])c1ccccc1O.O=C(N/N=C/c1cc(Br)cc(Br)c1[O-])c1ccccc1O.[Ni+2]	1.53 µM	–	–	–	–	6.94 µM	> 100 µM	4.88 µM	–	1.57 µM	3.22 µM	–	1.11 µM	4.9 µM	–	0.537 µM	–
CCCCNC(=O)/N=C/c1c(O)c2ccccc2oc1=O	–	> 100 µM	> 100 µM	–	> 100 µM	> 100 µM	–	–	–	> 100 µM	> 100 µM	> 100 µM	–	–	> 100 µM	–	65.1 µM
